Values quoted from earlier work in patent US20080114028A1, “Process for preparing polymorphic forms of solifenacin succinate” (priority 2006, published 2008).

Conditions: at room temperature in water, glacial acetic acid, dimethylsulfoxide, and methanol

- solubility: freely soluble
Structure (SMILES): O=C(O[C@H]1CN2CCC1CC2)N1CCc2ccccc2[C@@H]1c1ccccc1 [Solifenacin succinate, solifenacin succinate]
